Test results as given in patent US10376520B2, “Methods for the treatment of cardiovascular disorders” (Galapagos NV, priority 2015, dated 2019).

Test system: RA patients
Assay: Total cholesterol determination, Study 4 (4 weeks study in RA patients with inadequate response to methotrexate)
Type: in vivo, human
Settings: for [Total cholesterol] levels: Study 4
Excerpt: Randomized, double-blind, placebo-controlled, multicenter, phase II study of Compound 1 (dosed as a [Compound 1:HCl:3H2O]) to compare four dose regimens versus placebo, in combination with methotrexate, administered for 4 weeks in the treatment of subjects with active rheumatoid arthritis who have an inadequate response to methotrexate alone.
Randomized double-blind, placebo-controlled add on study in subjects with active RA who have an inadequate response to MTX monotherapy, in combination with methotrexate, administered for 4 weeks in the treatment of subjects with active rheumatoid arthritis who have an inadequate response to methotrexate alone.
90 subjects randomized to one of 4 dose regimens of Compound 1 (dosed as a [Compound 1:HCl:3H2O]) or placebo, on top of their stable dose of MTX. Thus, each of the 4 different doses of Compound 1 (dosed as a [Compound 1:HCl:3H2O]) and placebo groups has 18 subjects.
Compound 1 (dosed as a [Compound 1:HCl:3H2O]) capsules administered orally in 30 mg, 75 mg, 150 mg, or 300 mg doses per day for 4 weeks.
This method is based on the determination of Δ^4 cholestenone after enzymatic cleavage of the cholesterol ester by cholesterol esterase, conversion of cholesterol by cholesterol oxidase, and subsequent measurement by the Trinder reaction of the hydrogen peroxide formed (Allain et al., 1974).
Cholesterol esters are cleaved by the action of cholesterol esterase to yield free cholesterol and fatty acids. Cholesterol oxidase then catalyzes the oxidation of cholesterol to cholest-4-en-3-one and hydrogen peroxide. In the presence of peroxidase, the hydrogen peroxide formed effects the oxidative coupling of phenol and 4-aminophenazone to form a red quinone-imine dye. The color intensity of the dye formed is directly proportional to the cholesterol concentration. It is determined by measuring the increase in absorbance.
Human serum and plasma samples cholesterol determination was done on a Roche/Hitachi Cobas c 701/702 system which automatically calculate the analyte concentration of each sample.

Compound: O=C(Nc1nc2cccc(-c3ccc(CN4CCS(=O)(=O)CC4)cc3)n2n1)C1CC1 [Compound 1, cyclopropanecarboxylic acid {5-[4-(1,1-dioxo-thiomorpholin-4-ylmethyl)-phenyl]-[1,2,4]triazolo[1,5-a]pyridin-2yl}-amide]
- [Total cholesterol] % Mean % variation vs baseline after 4 weeks (30 mg qd): 6%
- [Total cholesterol] % Mean % variation vs baseline after 4 weeks (75 mg qd): 5%
- [Total cholesterol] % Mean % variation vs baseline after 4 weeks (150 mg qd): 3%
- [Total cholesterol] % Mean % variation vs baseline after 4 weeks (300 mg qd): 17%
- [Total cholesterol] levels (30 mg q.d., baseline): 5.19 mmol/L
- [Total cholesterol] levels (30 mg q.d., week 1): 5.31 mmol/L
- [Total cholesterol] levels (30 mg q.d., week 2): 5.25 mmol/L
- [Total cholesterol] levels (30 mg q.d., week 3): 5.32 mmol/L
- [Total cholesterol] levels (30 mg q.d., week 4): 5.50 mmol/L
- [Total cholesterol] levels (75 mg q.d., baseline): 4.99 mmol/L
- [Total cholesterol] levels (75 mg q.d., week 1): 5.04 mmol/L
- [Total cholesterol] levels (75 mg q.d., week 2): 5.07 mmol/L
- [Total cholesterol] levels (75 mg q.d., week 3): 5.08 mmol/L
- [Total cholesterol] levels (75 mg q.d., week 4): 5.18 mmol/L
- [Total cholesterol] levels (150 mg q.d., baseline): 4.77 mmol/L
- [Total cholesterol] levels (150 mg q.d., week 1): 4.94 mmol/L
- [Total cholesterol] levels (150 mg q.d., week 2): 4.85 mmol/L
- [Total cholesterol] levels (150 mg q.d., week 3): 4.89 mmol/L
- [Total cholesterol] levels (150 mg q.d., week 4): 4.96 mmol/L
- [Total cholesterol] levels (300 mg q.d., baseline): 4.56 mmol/L
- [Total cholesterol] levels (300 mg q.d., week 1): 5.13 mmol/L
- [Total cholesterol] levels (300 mg q.d., week 2): 5.21 mmol/L
- [Total cholesterol] levels (300 mg q.d., week 3): 5.23 mmol/L
- [Total cholesterol] levels (300 mg q.d., week 4): 5.33 mmol/L
